According to patent US5279956A, “Activated protein C polypeptides and anti-peptide antibodies, diagnostic methods and systems for inhibiting activated protein C” (The Scripps Research Institute, priority 1991, dated 1994):
Entries after “also recorded” stand apart in the source; their conditions may differ. No end group written: not given here.

Tested on: anti-(390-404) antibody
Test: Solid-phase ELISA: binding of anti-(390-404) antibody to immobilized peptides and PC
Set-up: species or system rabbit
Experimental: To determine the immunospecificity of the rabbit antisera obtained in Example 2b, ELISA assays were performed. Briefly, 50 μl of either 50 μM peptide-(390-404) prepared in Example 1 or 10 μg/ml of PC or APC prepared in Example 2c in a buffer consisting of 0.05M sodium carbonate (Na2 CO3) and 0.02% NaN3 at pH 9.0 were admixed into the wells of microtiter plates. The plates were maintained at 37° C. for one hour to permit the antigens to become operatively affixed to the well walls. After washing the antigen-coated wells with TBS, the wells were blocked with 250 μl/well of 10% bovine serum albumin (BSA) (Sigma) in TBS for one hour at 22° C. The blocking solution was then removed and the wells were subsequently washed five times with 250 μl/well of maintenance buffer (0.05M Tris-HCl, 0.1M NaCl, 0.02% NaN3, 1 mg/ml BSA, 5 mM CaCl2, 0.01% Tween 20 at pH 7.4). Fifty μl of rabbit non-immune or specific antiserum serially diluted in maintenance buffer was then admixed to the washed wells and maintained for one hour at 37° C. to allow formation of a solid liquid phase immunoreaction products. The wells were then washed three times with maintenance buffer followed by admixture of 50 μl of 2.0 μg/ml of secondary antibody (polyclonal biotinylated goat-anti-rabbit-IgG) (Pierce Biochemicals) diluted in maintenance buffer to each well for the detection of immunoreactant products. The plates were maintained for 1 hour at 37° C. after which time the secondary antibody solution was removed. After washing the wells as described above, 50 μl of 2.0 μg/ml streptavidin-alkaline-phosphatase (Pierce Biochemicals) in maintenance buffer was admixed into each well and maintained for 30 minutes at 37° C. Detection of specific immunoreaction products was obtained by admixture of 150 μl/well of 5 mg/ml p-nitrophenylphosphate (PNPP) (Pierce Biochemicals) in 0.1M diethanolamine and 0.02% NaN3 at pH 9.6 followed by measurement of the change in absorbance at 405 nm over time using the EL312 Microplate Bio-Kinetics Reader and the KinetiCalc Software Program (Biotek Instruments, Inc., Vt.). Non-specific binding was considered as the measured absorbance in 10% BSA blocked wells which served as negative controls without the preceding coating of a specific protein or peptide. Under the described conditions, non-specific binding never exceeded more than 5% of the specific binding.
The specificity of immunoaffinity purified anti-(390-404) antibody towards peptide-(390-404) and PC was evaluated by measuring the binding in solid-phase ELISA of the antibody to immobilized peptides including -(384-398), -(390-404), -(396-410), -(404-390), and -K395A-(390-404) listed in Table 1 with their corresponding SEQ ID NO, and to PC. […]

## SGLLHNYGVYTKVSR-NH2 [peptide-(384-398), -SGLLHNYGVYTKVSR]
solid-phase ELISA
  binding of anti-(390-404) antibody to immobilized peptide or PC: did not bind significantly; also recorded: did not significantly bind
Wells coated with 50 μM peptide or 10 μg/ml PC, 2 μg/ml anti-(390-404) antibody, mean of duplicates
  Anti-(390-404) (Absorbance/20 min.): 3 Absorbance/20 min.
